Test results published in US11339130B1 (Blade Therapeutics, Inc., priority 2016, dated 2022).

Columns and labels:
Assay type in all cases: biochemical
[1] = target: T1, Human Calpain 2/NS1 (Homo sapiens, UniProt P17655); test: Calpain inhibition continuous fluorescence (FRET) assay, Human Calpain 2/NS1; conditions: Column B; read-out: Human Calpain 2/NS1 IC50
T1 sequence (P17655 1-700): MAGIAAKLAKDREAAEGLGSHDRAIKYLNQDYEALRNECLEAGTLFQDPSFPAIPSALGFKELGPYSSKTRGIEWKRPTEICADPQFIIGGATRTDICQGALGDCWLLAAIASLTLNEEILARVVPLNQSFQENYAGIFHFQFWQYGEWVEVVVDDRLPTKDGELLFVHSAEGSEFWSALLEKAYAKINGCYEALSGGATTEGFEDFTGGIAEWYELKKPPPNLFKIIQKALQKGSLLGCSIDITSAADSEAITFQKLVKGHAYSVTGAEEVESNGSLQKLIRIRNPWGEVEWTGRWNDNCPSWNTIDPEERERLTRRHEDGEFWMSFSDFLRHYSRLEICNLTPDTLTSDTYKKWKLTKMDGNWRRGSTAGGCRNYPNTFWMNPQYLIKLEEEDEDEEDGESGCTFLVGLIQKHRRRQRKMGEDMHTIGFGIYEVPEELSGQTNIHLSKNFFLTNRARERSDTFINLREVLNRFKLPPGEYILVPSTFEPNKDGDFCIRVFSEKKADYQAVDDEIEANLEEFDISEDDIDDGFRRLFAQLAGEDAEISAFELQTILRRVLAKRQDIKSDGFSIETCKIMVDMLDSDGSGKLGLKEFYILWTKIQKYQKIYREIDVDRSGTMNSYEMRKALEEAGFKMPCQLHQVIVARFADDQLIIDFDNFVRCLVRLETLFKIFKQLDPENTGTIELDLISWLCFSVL
T1 sequence (P04632 1-268 partner): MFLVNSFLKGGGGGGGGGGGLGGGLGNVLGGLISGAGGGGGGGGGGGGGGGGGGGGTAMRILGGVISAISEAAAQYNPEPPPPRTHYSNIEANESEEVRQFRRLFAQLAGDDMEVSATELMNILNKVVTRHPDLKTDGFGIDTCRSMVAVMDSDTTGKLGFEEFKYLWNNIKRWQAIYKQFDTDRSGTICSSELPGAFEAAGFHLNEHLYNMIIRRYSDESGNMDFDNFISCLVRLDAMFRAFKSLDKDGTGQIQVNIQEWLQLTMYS
How it was run: (§1)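 Buffer 50 mM Tris pH 7.5/100 mM NaCl/1 mM DTT; enzyme + cpd preinc 25C; start w/ FRET substrate + CaCl2; kinetic 490/520 nm, 10 min; slopes 1-5 min; 4-PL IC50.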

[2] = target: T2, Human Calpain 9/NS1 (Homo sapiens, UniProt O14815); test: Calpain inhibition continuous fluorescence (FRET) assay, Human Calpain 9/NS1; conditions: Column C; read-out: Human Calpain 9/NS1 IC50
T2 sequence (O14815 1-690): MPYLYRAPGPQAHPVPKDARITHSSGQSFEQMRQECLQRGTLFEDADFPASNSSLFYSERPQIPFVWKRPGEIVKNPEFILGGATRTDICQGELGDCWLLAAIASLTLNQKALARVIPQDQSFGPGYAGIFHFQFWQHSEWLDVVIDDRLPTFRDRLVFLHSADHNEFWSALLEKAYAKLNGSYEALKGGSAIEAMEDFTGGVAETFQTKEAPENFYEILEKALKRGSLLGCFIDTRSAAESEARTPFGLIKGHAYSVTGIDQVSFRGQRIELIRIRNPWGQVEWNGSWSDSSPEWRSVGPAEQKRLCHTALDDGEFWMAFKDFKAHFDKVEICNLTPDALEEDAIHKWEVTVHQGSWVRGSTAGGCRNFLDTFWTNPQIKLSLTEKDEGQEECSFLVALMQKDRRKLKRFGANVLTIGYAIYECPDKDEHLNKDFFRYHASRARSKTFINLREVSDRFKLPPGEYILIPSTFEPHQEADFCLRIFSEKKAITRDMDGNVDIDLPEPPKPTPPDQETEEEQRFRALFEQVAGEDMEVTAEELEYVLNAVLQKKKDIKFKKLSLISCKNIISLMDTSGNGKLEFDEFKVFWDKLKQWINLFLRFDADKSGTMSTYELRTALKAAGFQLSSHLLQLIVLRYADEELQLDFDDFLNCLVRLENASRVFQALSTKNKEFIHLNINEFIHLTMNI
T2 sequence (P04632 1-268 partner): T1 sequence (P04632 1-268 partner)
How it was run: as §1

[3] = target: T3, Human Calpain 1/NS1 (Homo sapiens, UniProt P07384); test: Calpain inhibition continuous fluorescence (FRET) assay, Human Calpain 1/NS1; conditions: Column A; read-out: Human Calpain 1/NS1 IC50
T3 sequence (P07384 1-714): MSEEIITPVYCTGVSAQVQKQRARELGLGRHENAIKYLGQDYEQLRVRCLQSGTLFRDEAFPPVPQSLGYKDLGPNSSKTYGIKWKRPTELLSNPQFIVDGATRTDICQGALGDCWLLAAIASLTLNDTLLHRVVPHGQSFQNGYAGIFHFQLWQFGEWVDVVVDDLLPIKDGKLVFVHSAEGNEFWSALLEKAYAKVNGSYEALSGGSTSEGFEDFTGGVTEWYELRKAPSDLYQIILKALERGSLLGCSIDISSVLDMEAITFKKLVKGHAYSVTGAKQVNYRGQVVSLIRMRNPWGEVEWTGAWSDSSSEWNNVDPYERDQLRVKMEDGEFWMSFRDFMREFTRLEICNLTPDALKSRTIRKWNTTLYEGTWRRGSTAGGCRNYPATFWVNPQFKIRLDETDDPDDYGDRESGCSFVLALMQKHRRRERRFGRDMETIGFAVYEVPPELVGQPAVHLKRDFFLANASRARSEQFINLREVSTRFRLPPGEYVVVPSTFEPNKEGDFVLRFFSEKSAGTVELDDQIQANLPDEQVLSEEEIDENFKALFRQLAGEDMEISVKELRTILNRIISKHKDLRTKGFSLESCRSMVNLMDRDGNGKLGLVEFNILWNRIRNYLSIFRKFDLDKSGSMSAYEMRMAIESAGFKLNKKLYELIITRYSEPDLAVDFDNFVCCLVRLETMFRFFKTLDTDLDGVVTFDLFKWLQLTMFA
T3 sequence (P04632 1-268 partner): T1 sequence (P04632 1-268 partner)
How it was run: as §1

| Structure (SMILES) | IC50 [1] | IC50 [2] | IC50 [3] |
| --- | --- | --- | --- |
| Cc1cc(C(F)(F)F)cc(-n2nc(C)cc2C(=O)N[C@@H](Cc2ccccc2)C(=O)C(=O)NC2CC2)n1 [Compound 206, (S)—N-(4-(cyclopropylamino)-3,4-dioxo-1-phenylbutan-2-yl)-3-methyl-1-(6-methyl-4-(trifluoromethyl)pyridin-2-yl)-1H-pyrazole-5-carboxamide] | > 10 µM | > 10 µM | < 3 µM |
| Cc1cc(C(=O)N[C@@H](Cc2ccccc2)C(=O)C(N)=O)n(-c2ccncc2)n1 [Compound 209, (S)—N-(4-amino-3,4-dioxo-1-phenylbutan-2-yl)-3-methyl-1-(pyridin-4-yl)-1H-pyrazole-5-carboxamide] | < 3 µM | < 3 µM | < 3 µM |
| Cc1noc(-n2ccc(-c3ccccc3)n2)c1C(=O)N[C@@H](Cc1ccccc1)C(=O)C(N)=O [Compound 211, (S)—N-(4-amino-3,4-dioxo-1-phenylbutan-2-yl)-3-methyl-5-(3-phenyl-1H-pyrazol-1-yl)isoxazole-4-carboxamide] | < 3 µM | < 3 µM | < 3 µM |
| NC(=O)C(=O)[C@H](Cc1ccccc1)NC(=O)c1c(Cl)nsc1-c1ccccc1 [Compound 213, (S)—N-(4-amino-3,4-dioxo-1-phenylbutan-2-yl)-3-chloro-5-phenylisothiazole-4-carboxamide] | < 3 µM | < 3 µM | < 3 µM |
| Cc1cc(C(=O)N[C@@H](Cc2ccccc2)C(=O)C(N)=O)n(-c2nccs2)n1 [Compound 215, (S)—N-(4-amino-3,4-dioxo-1-phenylbutan-2-yl)-3-methyl-1-(thiazol-2-yl)-1H-pyrazole-5-carboxamide] | < 3 µM | < 3 µM | < 3 µM |
| Cc1cc(C(=O)N[C@@H](Cc2ccccc2)C(=O)C(N)=O)nn1-c1nccs1 [Compound 219, (S)—N-(4-amino-3,4-dioxo-1-phenylbutan-2-yl)-5-methyl-1-(thiazol-2-yl)-1H-pyrazole-3-carboxamide] | 3 to 10 µM | 3 to 10 µM | 3 to 10 µM |
| NC(=O)C(=O)[C@H](Cc1ccccc1)NC(=O)[C@@H]1C[C@@H](OCc2ccccc2)CN1c1ccccc1 [Compound 220, (2S,4R)—N—((S)-4-amino-3,4-dioxo-1-phenylbutan-2-yl)-4-(benzyloxy)-1-phenylpyrrolidine-2-carboxamide] | < 3 µM | 3 to 10 µM | < 3 µM |
| Cc1noc(-c2ccccc2)c1C(=O)N[C@@H](Cc1ccccc1)C(=O)C(=O)NCc1cccnc1 [Compound 224, (S)—N-(3,4-dioxo-1-phenyl-4-((pyridin-3-ylmethyl)amino)butan-2-yl)-3-methyl-5-phenylisoxazole-4-carboxamide] | 3 to 10 µM | 3 to 10 µM | < 3 µM |

Continued, values first:

| IC50 [1] | IC50 [2] | IC50 [3] | Structure (SMILES) |
| --- | --- | --- | --- |
| > 10 µM | > 10 µM | < 3 µM | Cc1noc(-c2ccccc2)c1C(=O)N[C@@H](Cc1ccccc1)C(=O)C(=O)NCc1ccc2c(c1)OCO2 [Compound 225, (S)—N-(4-((benzo[d][1,3]dioxol-5-ylmethyl)amino)-3,4-dioxo-1-phenylbutan-2-yl)-3-methyl-5-phenylisoxazole-4-carboxamide] |
| > 10 µM | 3 to 10 µM | > 10 µM | Cc1cc(-n2nc(C(=O)N[C@@H](Cc3ccccc3)C(=O)C(N)=O)cc2C)nc(C)n1 [Compound 232, (S)—N-(4-amino-3,4-dioxo-1-phenylbutan-2-yl)-1-(2,6-dimethylpyrimidin-4-yl)-5-methyl-1H-pyrazole-3-carboxamide] |
| < 3 µM | 3 to 10 µM | < 3 µM | Cc1cc(C(=O)N[C@@H](Cc2ccccc2)C(=O)C(N)=O)n(-c2ccc(-c3ccccc3)nn2)n1 [Compound 233, (S)—N-(4-amino-3,4-dioxo-1-phenylbutan-2-yl)-3-methyl-1-(6-phenylpyridazin-3-yl)-1H-pyrazole-5-carboxamide] |
| < 3 µM | < 3 µM | < 3 µM | Cc1cc(C(F)(F)F)cc(-n2nc(C)cc2C(=O)N[C@@H](Cc2ccccc2)C(=O)C(N)=O)n1 [Compound 234, (S)—N-(4-amino-3,4-dioxo-1-phenylbutan-2-yl)-3-methyl-1-(6-methyl-4-(trifluoromethyl)pyridin-2-yl)-1H-pyrazole-5-carboxamide] |
| < 3 µM | < 3 µM | < 3 µM | Cc1cc(-n2nc(C)cc2C(=O)N[C@@H](Cc2ccccc2)C(=O)C(N)=O)nc(C)n1 [Compound 235, (S)—N-(4-amino-3,4-dioxo-1-phenylbutan-2-yl)-1-(2,6-dimethylpyrimidin-4-yl)-3-methyl-1H-pyrazole-5-carboxamide] |
| < 3 µM | < 3 µM | < 3 µM | Cn1ncc(-c2ccccc2)c1C(=O)N[C@@H](Cc1ccccc1)C(=O)C(N)=O [Compound 240] |
| < 3 µM | < 3 µM | < 3 µM | Cn1cc(-c2ccccc2)c(C(=O)N[C@@H](Cc2ccccc2)C(=O)C(N)=O)n1 [Compound 241, (S)—N-(4-amino-3,4-dioxo-1-phenylbutan-2-yl)-1-methyl-4-phenyl-1H-pyrazole-3-carboxamide] |
| 3 to 10 µM | 3 to 10 µM | 3 to 10 µM | Cc1noc(-c2ccccc2)c1C(=O)N[C@@H](Cc1ccccc1)C(=O)C(=O)NCc1ccc(OC(F)(F)F)cc1 [Compound 247, (S)—N-(3,4-dioxo-1-phenyl-4-((4-(trifluoromethoxy)benzyl)amino)butan-2-yl)-3-methyl-5-phenylisoxazole-4-carboxamide] |
| > 10 µM | < 3 µM | > 10 µM | Cc1cc(C(=O)N[C@@H](Cc2ccccc2)C(=O)C(N)=O)nn1-c1nc2ccccc2o1 [Compound 256, (S)—N-(4-amino-3,4-dioxo-1-phenylbutan-2-yl)-1-(benzo[d]oxazol-2-yl)-5-methyl-1H-pyrazole-3-carboxamide] |
| < 3 µM | < 3 µM | < 3 µM | NC(=O)C(=O)[C@H](Cc1ccccc1)NC(=O)c1c(F)cnn1-c1ccccc1 [Compound 258, (S)—N-(4-amino-3,4-dioxo-1-phenylbutan-2-yl)-4-fluoro-1-phenyl-1H-pyrazole-5-carboxamide] |
